Consider 20 compounds from publication PMC8151276, “An Integrated Approach toward NanoBRET Tracers for Analysis of GPCR Ligand Engagement” (Molecules, 2021).

This test has as its target T1, HTR7 (Homo sapiens, UniProt P34969).
T1 construct: purchased Promega (in-house HiBiT-GPCR construct library, NanoBRET)
Kind of test: NanoBRET screen HiBiT-HTR7 in HEK293. In kind it is binding. As to the method:
Each tracer candidate was screened across the entire library of HiBiT-GPCR constructs using NanoBRET as the detection modality. As depicted in Figure 4A, the specificity of interactions was evaluated through decrease in BRET due to competitive displacement of a bound tracer by excess parental compound. Each tracer was analyzed for binding to each HiBiT-GPCR fusion in the absence and in the presence of competing parental compound. Briefly, HEK293 cells were transfected with HiBiT-GPCR constructs diluted into promoterless DNA to reduce expression and maximize translocation to the cell surface. Each tracer candidate was then screened at concentrations of 1 μM and 0.1 μM across cells expressing these fusions. Cells were treated for 1.5 h with tracer either alone or in the presence of 20 μM competing parental compound (i.e., control). BRET was measured upon addition of purified LgBiT and subsequent complementation with HiBiT genetically fused to a GPCR. The specificity of interactions was assessed through a decrease in BRET signal due to competitive displacement of the bound tracer. To further gauge the robustness of these interactions, the fold response over the control (i.e., BRETtracer/BRETcontrol) was calculated. We chose a 1.5-fold response, which translates to ≥7-fold signal over noise as the minimal threshold required to score an interaction as positive.
HiBiT-GPCR DNA constructs were diluted in 10 mM Tris pH 8 to a final concentration of 0.01 μg/μL, arrayed in 96-well plates and stored at −20 °C. For transfection, HEK293 cells were suspended in Opti-MEM (without phenol red) supplemented with 2% fetal bovine serum (Seradigm) and 100 units/mL penicillin–streptomycin (Gibco) at a final concentration of 220,000 cells/mL and dispensed into white 96-well plates at 90 μL/well. Subsequent transfections and screens were carried using an Agilent Bravo Automated Liquid Handling Platform. First, the 96-well HiBiT DNA arrays were diluted 25-fold in Opti-MEM (without serum or phenol red) to a final concentration of 0.0004 μg/μL and 20 μL of the diluted DNAs were transferred into new 96-well plates. Next, promoterless carrier DNA (1 μg/μL) was diluted 25-fold (0.04 μg/μL) and then dispensed into the diluted arrays at 20 μL/well. Following brief mixing, Viafect transfection reagent (Promega) diluted 16-fold into Opti-MEM was dispensed into the plates at 40 μL/well. After mixing by pipetting, plates were incubated for 10 min on the pipetting station deck. The DNA-transfection reagent complexes were then added to plates containing cells. To facilitate the screen, 10 μL of DNA-transfection reagent complexes were added in duplicates to the top 4 and bottom 4 rows, resulting in two identical 48-well arrays per plate. Plates with transfected cells were incubated for 18–20 h at 37 °C/5% CO2. A screen of each tracer across the entire library using two different concentrations requires duplicate plates of transfected cells. Depending on the number of tracers being screened, transfections can be scaled up using the same ratios. The next day, for each tracer, four 20× screening solutions in tracer dilution buffer (Promega) were prepared: two duplicates at final concentration of 20 μM and two duplicates at a final concentration of 2 μM. […] The four resulting solutions were diluted 4-fold in Opti-MEM without serum or phenol red to generate 5× solutions (5 µM and 0.5 µM tracer +/− 100 μM competing compound). To screen the library, a BioTek MultiFlo FX liquid dispenser was used to dispense 22.5 µL of tracer solution to the top 4 rows and 22.5 µL tracer + competing compound solution to the 4 bottom rows. Plates were briefly mixed on an orbital shaker and incubated for 1.5 h at room temperature. […] Plates were briefly mixed on an orbital shaker and incubated for 15 min to allow complementation.
In general terms: Bioluminescence resonance energy transfer reports proximity on the nanometre scale.

SMILES strings stand for the structures.

T1 sequence (P34969 whole entry): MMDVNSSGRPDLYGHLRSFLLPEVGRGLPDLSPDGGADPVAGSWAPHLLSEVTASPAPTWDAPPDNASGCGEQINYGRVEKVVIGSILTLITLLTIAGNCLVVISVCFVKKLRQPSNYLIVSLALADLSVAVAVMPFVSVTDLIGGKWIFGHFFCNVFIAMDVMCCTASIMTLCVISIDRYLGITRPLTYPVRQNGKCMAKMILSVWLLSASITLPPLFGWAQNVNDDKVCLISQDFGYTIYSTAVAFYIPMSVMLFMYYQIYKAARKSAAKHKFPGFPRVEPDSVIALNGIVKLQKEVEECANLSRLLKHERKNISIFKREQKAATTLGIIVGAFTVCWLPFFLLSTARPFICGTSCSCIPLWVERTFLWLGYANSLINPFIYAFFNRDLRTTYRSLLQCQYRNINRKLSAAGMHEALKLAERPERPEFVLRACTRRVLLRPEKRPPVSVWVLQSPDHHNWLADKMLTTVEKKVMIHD

With `O=C(CCc1ccc2n1[B-](F)(F)[N+]1=C(c3ccc[nH]3)C=CC1=C2)NCc1ccc(C(=O)NCCOCCC(=O)N[C@@H]2CC[C@@]3(O)[C@H]4Cc5ccc(O)c6c5[C@@]3(CCN4CC3CC3)[C@H]2O6)cc1` [Naltrexone-3-NB590], the “NanoBRET Fold Response” value is, setting by setting: (HTR7, tracer 0.1μM) 0.97; (HTR7, tracer 1μM) 0.97.
Turning to `O=C(CCOCCOCCOCCOCCNC(=O)CCc1ccc2n1[B-](F)(F)[N+]1=C(c3ccc[nH]3)C=CC1=C2)NCCCN1CCN(C2=Nc3cc(Cl)ccc3Nc3ccccc32)CC1` [Clozapine-a-2-NB590], the “NanoBRET Fold Response” value by setting is: (HTR7, 0.1μM tracer) 1.22; (HTR7, 1μM tracer) 1.08.
Turning to `CCOC(=O)c1cc(C#N)c(N2CCC(C(=O)NS(=O)(=O)Cc3ccccc3/C=C/C(=O)NCCNC(=O)CCc3ccc4n3[B-](F)(F)[N+]3=C(c5ccc[nH]5)C=CC3=C4)CC2)nc1C` [AZD1283-1-NB590], the “NanoBRET Fold Response” value reads like this: (HTR7, 0.1μM) 1.08; (HTR7, 1μM) 1.09.
Regarding `COc1ccc2[nH]c(-c3ccc(CNC(=O)CCOCCOCCOCCOCCNC(=O)CCc4ccc5n4[B-](F)(F)[N+]4=C(c6ccc[nH]6)C=CC4=C5)cc3)c(CCNC(C)=O)c2n1` [AzomelatoninICO9-2-NB590], the “NanoBRET Fold Response” value by setting is: (0.1μM tracer) 0.96; (1μM tracer) 1.02.
On to `CCCn1c(=O)c2[nH]c(-c3ccc(OCC(=O)NCCNC(=O)CCOCCNC(=O)c4ccc(CNC(=O)CCc5ccc6n5[B-](F)(F)[N+]5=C(c7ccc[nH]7)C=CC5=C6)cc4)cc3)nc2n(CCC)c1=O` [XAC-3-NB590], for which the “NanoBRET Fold Response” value is 0.99 (HTR7, tracer 0.1μM) and 0.96 (HTR7, tracer 1μM).
On to `COc1ccccc1N1CCN(CCCCN2C(=O)c3ccc(CNC(=O)CCOCCNC(=O)c4ccc(CNC(=O)CCc5ccc6n5[B-](F)(F)[N+]5=C(c7ccc[nH]7)C=CC5=C6)cc4)cc3C2=O)CC1` [NAN-190-3-NB590], for which the “NanoBRET Fold Response” value runs as follows: (HTR7, tracer 0.1μM) 1.21; (HTR7, tracer 1μM) 1.05.
For the compound `CN(CCC=C1c2ccccc2CCc2ccccc21)C(=O)CCOCCOCCOCCOCCNC(=O)CCc1ccc2n1[B-](F)(F)[N+]1=C(c3ccc[nH]3)C=CC1=C2` [Amitriptyline-e-2-NB590], the “NanoBRET Fold Response” value (tracer at 1μM) worked out at 0.96.
With `O=C(CCc1ccc2n1[B-](F)(F)[N+]1=C(c3ccc[nH]3)C=CC1=C2)NCc1ccc(C(=O)NCCOCCOCCNCC(O)COc2cccc3ccccc23)cc1` (centres unmarked) [Propranolol-3-NB590], the “NanoBRET Fold Response” value is 1.03 (HTR7, 0.1μM) and 1.02 (HTR7, 1μM).
Consider `COc1ccc2c(n1)c(CCNC(C)=O)cn2CCNC(=O)CCc1ccc2n1[B-](F)(F)[N+]1=C(c3ccc[nH]3)C=CC1=C2` [Azamelatonin-1-NB590], for which the “NanoBRET Fold Response” value is recorded as 0.99 (0.1μM tracer) and 0.99 (1μM tracer).
Take `O=C(CCOCCOCCOCCOCCNC(=O)CCc1ccc2n1[B-](F)(F)[N+]1=C(c3ccc[nH]3)C=CC1=C2)NCCCN1CCN(C2=Nc3ccccc3Oc3ccc(Cl)cc32)CC1` [Loxapine-a-2-NB590]: the “NanoBRET Fold Response” value runs as follows: (HTR7, tracer 0.1μM) 1.07; (HTR7, tracer 1μM) 1.30.
For `N#CN/C(=N\CCNC(=O)c1ccc(N)cc1)NCCCOc1cccc(CN2CCCCC2)c1` [Aminopotentidine (unmodified)], the “NanoBRET Fold Response” value turned out to be 1.10 (HTR7, other tracers/Aminopotentidine (unmodified), 0.1μM) and 1.18 (HTR7, other tracers/Aminopotentidine (unmodified), 1μM).
Take `COc1ccccc1N1CCN(CCCCN2C(=O)c3ccc(CNC(=O)CCOCCOCCOCCOCCNC(=O)CCc4ccc5n4[B-](F)(F)[N+]4=C(c6ccc[nH]6)C=CC4=C5)cc3C2=O)CC1` [NAN-190-2-NB590]: the “NanoBRET Fold Response” value (HTR7, tracer 1μM) was determined as 1.10.
For the compound `CC(C)N(CC[C@H](c1ccccc1)c1cc(CCNC(=O)c2ccc(CNC(=O)CCc3ccc4n3[B-](F)(F)[N+]3=C(c5ccc[nH]5)C=CC3=C4)cc2)ccc1O)C(C)C` [Tolterodine-BZ-NB590], the “NanoBRET Fold Response” value (HTR7, tracer 0.1μM) stood at 1.06 and the “NanoBRET Fold Response” value (HTR7, tracer 1μM) is reported as 1.03.
On to `O=C(CCc1ccc2n1[B-](F)(F)[N+]1=C(c3ccc[nH]3)C=CC1=C2)NCCOCCOCCNC(=O)OCCOCCN1CCN(C2=Nc3ccccc3Sc3ccccc32)CC1` [Quetiapine-a-2-NB590], for which the “NanoBRET Fold Response” value by setting is: (HTR7, tracer 0.1μM) 1.01; (HTR7, tracer 1μM) 1.15.
The matching figures for `CC(C)N(CC[C@H](c1ccccc1)c1cc(CCNC(=O)CCOCCOCCOCCOCCNC(=O)CCc2ccc3n2[B-](F)(F)[N+]2=C(c4ccc[nH]4)C=CC2=C3)ccc1O)C(C)C` [Tolterodine-2-NB590]: 1.06 and 1.07.
With `CN(C)CCC=C1c2ccccc2CCc2ccc(C(=O)NCCNC(=O)CCOCCOCCOCCOCCNC(=O)CCc3ccc4n3[B-](F)(F)[N+]3=C(c5ccc[nH]5)C=CC3=C4)cc21` [Amitriptyline-a-2-NB590], the “NanoBRET Fold Response” value reads like this: (tracer at 0.1μM) 1.00; (tracer at 1μM) 1.15.
Consider `Cc1cc2c(s1)Nc1ccccc1N=C2N1CCN(CCCNC(=O)CCOCCOCCOCCOCCNC(=O)CCc2ccc3n2[B-](F)(F)[N+]2=C(c4ccc[nH]4)C=CC2=C3)CC1` [Olanzapine-a-2-NB590], for which the “NanoBRET Fold Response” value is on record as 0.99 (HTR7, tracer 0.1μM) and 1.16 (HTR7, tracer 1μM).
As to `N#CN=C(NCCCOc1cccc(CN2CCCCC2)c1)NCCNC(=O)CCOCCOCCOCCOCCNC(=O)CCc1ccc2n1[B-](F)(F)[N+]1=C(c3ccc[nH]3)C=CC1=C2` [Aminopotentidine-2-NB590], the “NanoBRET Fold Response” value (HTR7, tracer 0.1μM) was determined as 1.00 and the “NanoBRET Fold Response” value (HTR7, tracer 1μM) came out at 1.00.
With `Cc1nc2n(c(=O)c1CCN1CCC(c3noc4cc(F)ccc34)CC1)CCCC2OC(=O)NCCOCCOCCOCCOCCNC(=O)CCc1ccc2n1[B-](F)(F)[N+]1=C(c3ccc[nH]3)C=CC1=C2` (centres unmarked) [Risperidone-2-NB590], the “NanoBRET Fold Response” value turned out to be 1.06 (HTR7, tracer 0.1μM) and 1.19 (HTR7, tracer 1μM).
With `CN(C)CCC=C1c2ccccc2CCc2ccc(C(=O)NCCNC(=O)CCOCCOCCOCCOCCNC(=O)CCc3ccc4n3[B-](F)(F)[N+]3=C(c5ccc[nH]5)C=CC3=C4)cc21` [Amitriptyline-b-2-NB590], the “NanoBRET Fold Response” value was 0.94 (tracer at 0.1μM, listed as amitriptyline-b-2-NB590) and 0.94 (tracer at 1μM, listed as amitriptyline-b-2-NB590).
